According to US20120270929A1, “MODULATION OF TTC39 EXPRESSION TO INCREASE HDL” (ISIS Pharmaceuticals, Inc., priority 2009, published 2012):
Oligonucleotides are written 5' to 3', each unit as a sugar letter and its base; * is a phosphorothioate linkage, no mark a phosphodiester; rarer units and linkages stand in square brackets, end groups in braces. Plain capitals give the bases only. e = 2'-O-(2-methoxyethyl) (MOE); [5mC] = 5-methylcytosine; d = 2'-deoxy (DNA)

Columns and labels:
[1] = test system: murine TTC39A mRNA; assay: Dose-dependent antisense inhibition of murine TTC39A in b.END cells; assay type: cell-based, mouse; settings: ~16 h; for IC50: cytofectin
Protocol: Cells were plated at a density of 3,500 cells per well and transfected using cytofectin reagent with 4.375 nM, 8.75 nM, 17.5 nM, 35 nM, 70 nM, and 140 nM concentrations of antisense oligonucleotide, as specified in Table 28. After a treatment period of approximately 16 hours, RNA was isolated from the cells and TTC39A mRNA levels were measured by quantitative real-time PCR. Murine primer probe set RTS3262 was used to measure mRNA levels. TTC39A mRNA levels were adjusted according to total RNA content, as measured by RIBOGREEN®. Results are presented as percent inhibition of TTC39A, relative to untreated control cells.

[2] = test system: murine TTC39A mRNA; assay: Antisense inhibition of mouse TTC39A in b.END cells, single dose; assay type: cell-based; settings: 70 nM, cytofectin, ~24 h, vs untreated control
Protocol: Antisense oligonucleotides were designed targeting a TTC39A nucleic acid and were tested for their effects on TTC39A mRNA in vitro. Cultured b.END cells at a density of 4,000 cells per well were transfected using cytofectin reagent with 70 nM antisense oligonucleotide. After a treatment period of approximately 24 hours, RNA was isolated from the cells and TTC39A mRNA levels were measured by quantitative real-time PCR. Mouse primer probe set RTS3262 (forward sequence TGTGCGTCATGCTGTTGCT, designated herein as SEQ ID NO: 113; reverse sequence […], designated herein as SEQ ID NO: 114; probe sequence […], designated herein as SEQ ID NO: 115). TTC39A mRNA levels were adjusted according to total RNA content, as measured by RIBOGREEN®. Results are presented as percent inhibition of TTC39A, relative to untreated control cells.
The chimeric antisense oligonucleotides targeting TTC39A were designed as 5-10-5 MOE gapmers. The gapmers are 20 nucleotides in length, wherein the central gap segment is comprised of ten 2′-deoxynucleotides and is flanked on both sides (in the 5′ and 3′ directions) by wings comprising five nucleotides each. Each nucleotide in the 5′ wing segment and each nucleotide in the 3′ wing segment has a 2′-MOE modification. The internucleoside linkages throughout each gapmer are phosphorothioate (P═S) linkages. All cytosine residues throughout each gapmer are 5-methylcytosines. “Mouse Target start site” indicates the 5′-most nucleotide to which the gapmer is targeted in a mouse nucleic acid sequence.

[3] = test system: murine TTC39B mRNA; assay: Dose-dependent antisense inhibition of murine TTC39B in mouse primary hepatocytes (Example 2); assay type: cell-based; settings: cytofectin, ~16 h
Protocol: Cells were plated at a density of 10,000 cells per well and transfected using cytofectin reagent with 25 nM, 50 nM, 100 nM, and 200 nM concentrations of antisense oligonucleotide, as specified in Table 3. After a treatment period of approximately 16 hours, RNA was isolated from the cells and TTC39B mRNA levels were measured by quantitative real-time PCR. Murine primer probe set mTtc39b_LTS00287 (forward sequence: […], incorporated herein as SEQ ID NO: 94; reverse sequence: […], incorporated herein as SEQ ID NO: 95; probe sequence: […], incorporated herein as SEQ ID NO: 96) was used to measure mRNA levels. TTC39B mRNA levels were adjusted according to total RNA content, as measured by RIBOGREEN®. Results are presented as percent inhibition of TTC39B, relative to untreated control cells.

[4] = test system: murine TTC39B mRNA; assay: Dose-dependent antisense inhibition of murine TTC39B in mouse primary hepatocytes (Example 3); assay type: cell-based; settings: cytofectin, ~16 h
Protocol: Cells were plated at a density of 10,000 cells per well and transfected using cytofectin reagent with 6.25 nM, 12.5 nM, 25 nM, 50 nM, 100 nM, and 200 nM concentrations of antisense oligonucleotide, as specified in Table 4. After a treatment period of approximately 16 hours, RNA was isolated from the cells and TTC39B mRNA levels were measured by quantitative real-time PCR. Murine primer probe set mTtc39b_LTS00287 was used to measure mRNA levels. TTC39B mRNA levels were adjusted according to total RNA content, as measured by RIBOGREEN®. Results are presented as percent inhibition of TTC39B, relative to untreated control cells.

[5] = test system: murine TTC39B mRNA; assay: Antisense inhibition of murine TTC39B in mouse primary hepatocytes, single dose; assay type: cell-based; settings: 100 nM, cytofectin, ~24 h, vs untreated control; gapmers targeted to SEQ ID NO: 10-14
How it was run: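 Mouse primary hepatocytes transfected by cytofectin with 100 nM 5-10-5 MOE gapmer (20-mer, phosphorothioate, 5-methylcytosine) for ~24 h. TTC39B mRNA quantified by real-time qPCR, normalized to RIBOGREEN total RNA. Values given as percent inhibition versus untreated cells.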

Sequence	percent inhibition of TTC39A mRNA ([1]; 4.375 nM)	percent inhibition of TTC39A mRNA ([1]; 8.75 nM)	percent inhibition of TTC39A mRNA ([1]; 17.5 nM)	percent inhibition of TTC39A mRNA ([1]; 35.0 nM)	percent inhibition of TTC39A mRNA ([1]; 70.0 nM)	percent inhibition of TTC39A mRNA ([1]; 140.0 nM)	IC50 [1]	% inhibition of murine TTC39A mRNA [2]	percent inhibition of TTC39B mRNA ([3]; 25 nM)	percent inhibition of TTC39B mRNA ([3]; 50 nM)	percent inhibition of TTC39B mRNA ([3]; 100 nM)	percent inhibition of TTC39B mRNA ([3]; 200 nM)	percent inhibition of TTC39B mRNA ([4]; 6.25 nM)	percent inhibition of TTC39B mRNA ([4]; 12.5 nM)	percent inhibition of TTC39B mRNA ([4]; 25.0 nM)	percent inhibition of TTC39B mRNA ([4]; 50.0 nM)	percent inhibition of TTC39B mRNA ([4]; 100.0 nM)	percent inhibition of TTC39B mRNA ([4]; 200.0 nM)	% inhibition of murine TTC39B mRNA [5]
GCCTCAGAATCCTGGTGGGA (eG*e[5mC]*e[5mC]*eT*e[5mC]*dA*dG*dA*dA*dT*d[5mC]*d[5mC]*dT*dG*dG*eT*eG*eG*eG*eA; antisense) [ISIS 474437]	5%	6%	26%	36%	62%	82%	0.049 µM	94%	–	–	–	–	–	–	–	–	–	–	–
TCCATGGAGTAGTTCTTGTA (eT*e[5mC]*e[5mC]*eA*eT*dG*dG*dA*dG*dT*dA*dG*dT*dT*d[5mC]*eT*eT*eG*eT*eA; antisense) [ISIS 474452]	0%	9%	36%	46%	61%	86%	0.041 µM	92%	–	–	–	–	–	–	–	–	–	–	–
TCCTTGCTCAGCAGGTCGGC (eT*e[5mC]*e[5mC]*eT*eT*dG*d[5mC]*dT*d[5mC]*dA*dG*d[5mC]*dA*dG*dG*eT*e[5mC]*eG*eG*e[5mC]; antisense) [ISIS 474366]	0%	0%	23%	45%	64%	80%	0.043 µM	93%	–	–	–	–	–	–	–	–	–	–	–
TCGGTGCCTCTGACACAGCG (eT*e[5mC]*eG*eG*eT*dG*d[5mC]*d[5mC]*dT*d[5mC]*dT*dG*dA*d[5mC]*dA*e[5mC]*eA*eG*e[5mC]*eG; antisense) [ISIS 474474]	0%	5%	27%	56%	72%	87%	0.033 µM	97%	–	–	–	–	–	–	–	–	–	–	–
TGCACTGGTCCAGGGCCTCA (eT*eG*e[5mC]*eA*e[5mC]*dT*dG*dG*dT*d[5mC]*d[5mC]*dA*dG*dG*dG*e[5mC]*e[5mC]*eT*e[5mC]*eA; antisense) [ISIS 474351]	6%	0%	8%	48%	66%	84%	0.044 µM	94%	–	–	–	–	–	–	–	–	–	–	–
TGTCAGTGACAGTGGCAGCT (antisense eT*eG*eT*e[5mC]*eA*dG*dT*dG*dA*d[5mC]*dA*dG*dT*dG*dG*e[5mC]*eA*eG*e[5mC]*eT) [ISIS 447159]	–	–	–	–	–	–	–	–	41%	60%	76%	85%	12%	19%	37%	62%	78%	86%	71%
